Measurements taken from BindingDB's records for doi:10.1016/j.bmcl.2009.02.015 (Pfizer, 2009).

biological target: Cyclin-dependent kinase 2 (Homo sapiens) (UniProt P24941); assay: Inhibition of CDK2

SMILES	IC50 [nM]
COC(=O)COc1ccc2sc3c(c2c1)NC[C@@H](C)NC3=O [((R)-7-Methyl-9-oxo-6,7,8,9-tetrahydro-5H-10-thia-5,8-diaza-benzo[a]azulen-3-yloxy)-acetic acid methyl ester]	3090
COCCOc1ccc2sc3c(c2c1)NC[C@@H](C)NC3=O [(R)-3-(2-Methoxy-ethoxy)-7-methyl-5,6,7,8-tetrahydro-10-thia-5,8-diaza-benzo[a]azulen-9-one]	81
COc1cccc(COc2ccc3sc4c(c3c2)NC[C@@H](C)NC4=O)c1 [(R)-3-(3-Methoxy-benzyloxy)-7-methyl-5,6,7,8-tetrahydro-10-thia-5,8-diaza-benzo[a]azulen-9-one]	64
C[C@@H]1CNc2c(sc3ccc(OCC4CC4)cc23)C(=O)N1 [(R)-3-Cyclopropylmethoxy-7-methyl-5,6,7,8-tetrahydro-10-thia-5,8-diaza-benzo[a]azulen-9-one]	52
C[C@@H]1CNc2c(sc3ccc(O)cc23)C(=O)N1 [(R)-3-Hydroxy-7-methyl-5,6,7,8-tetrahydro-10-thia-5,8-diaza-benzo[a]azulen-9-one]	26
CC(C)COc1ccc2sc3c(c2c1)NC[C@@H](C)NC3=O [(R)-3-Isobutoxy-7-methyl-5,6,7,8-tetrahydro-10-thia-5,8-diaza-benzo[a]azulen-9-one]	11
CCCNC[C@@H]1CNc2c(sc3ccc(OC)cc23)C(=O)N1 [(R)-3-Methoxy-7-propylaminomethyl-5,6,7,8-tetrahydro-10-thia-5,8-diaza-benzo[a]azulen-9-one]	2600
COc1ccc2sc3c(c2c1)NC[C@@H](CNCc1ccccc1)NC3=O [(R)-7-(Benzylamino-methyl)-3-methoxy-5,6,7,8-tetrahydro-10-thia-5,8-diaza-benzo[a]azulen-9-one]	2700
CCNC[C@@H]1CNc2c(sc3ccc(OC)cc23)C(=O)N1 [(R)-7-Ethylaminomethyl-3-methoxy-5,6,7,8-tetrahydro-10-thia-5,8-diaza-benzo[a]azulen-9-one]	3100
COc1ccc2sc3c(c2c1)NC[C@@H](CN(C)Cc1ccccc1)NC3=O [(S)-7-[(Benzyl-methyl-amino)-methyl]-3-methoxy-5,6,7,8-tetrahydro-10-thia-5,8-diaza-benzo[a]azulen-9-one]	3170

The remaining lines, values ahead:

IC50 [nM]	SMILES
150	COc1ccc2sc3c(c2c1)SCCNC3=O
160	COc1ccc2sc3c(c2c1)NCCNC3=O [3-Methoxy-5,6,7,8-tetrahydro-10-thia-5,8-diaza-benzo[a]azulen-9-one]
360	COc1ccc2sc3c(c2c1)CCCNC3=O [3-Methoxy-5,6,7,8-tetrahydro-10-thia-8-aza-benzo[a]azulen-9-one]
146	COc1ccc2sc3c(c2c1)NC[C@@H](CN)NC3=O [(R)-7-Aminomethyl-3-methoxy-5,6,7,8-tetrahydro-10-thia-5,8-diaza-benzo[a]azulen-9-one]
25	COc1ccc2sc3c(c2c1)NC[C@@H](CO)NC3=O [(S)-7-Hydroxymethyl-3-methoxy-5,6,7,8-tetrahydro-10-thia-5,8-diaza-benzo[a]azulen-9-one]
